Experimental data: patent US12485085B2, “PPAR agonist complex and methods of use” (RODAN & FIELDS, LLC, priority 2019, dated 2025)

Tests used:
[1] = test system: IL-8; assay: IL-8 quantification in EpiDerm-conditioned media (ELISA); type: cell-based, human
Description: The test material was assayed in duplicates. Controls were assayed in triplicates. The negative control was type I sterile water and Finsolv. The positive control was 5% SDS. All incubations were at 37° C. The pre-incubation time 1 (tissue acclimatization time) was overnight and the exposure to samples was 60 min. Tissues were then rinsed with sterile PBS and placed in the new culture medium. Post-incubation time 1 was 24 h, afterward medium was collected and saved at −20° C. for later interleukin quantification, and tissues were placed in new medium. Post-incubation time 2 was 18 h (both post-incubation times are to allow the consequences of the potential irritation to fully develop), MTT test (irritation readout) was 3 h and the extraction was left overnight. The extracted formazan (the product of the MTT conversion, proportional to cell viability) was quantified with Molecular Devices microplate reader MAX190 by colorimetry. Signal quantification was performed using SoftMax3.1.2PRO at 560 nm. For IL-8 quantification (a complementary method for assessing skin irritation), 100 μl samples of media from each well were tested in triplicates using CytoSet antibody pair for ELISA from Thermo Fischer Scientific (Waltham, Mass.; cat. #133301) according to the manufacturer's instructions. […]

[2] = test system: EpiDerm skin substitutes; assay: Skin irritation in reconstructed human epidermal model EpiDerm (MTT viability); type: cell-based; parameters: key to Classification: I = irritant; NI = non irritant
Description: Materials and Methods: Thirty p of each sample was applied on top of EpiDerm skin substitutes.
EpiDerm skin substitutes (cat. EPI-200-SIT; Lot #29690) and 5% SDS solution (positive control) were obtained from MatTek (Ashland, Mass.). The test was generally performed according to MatTek protocol. The study was conducted in line with requirements of OECD GD 34 and ECVAM Performance Standard document for applying human skin models to in vitro skin irritation. This protocol utilizes the MTT-based cytotoxicity readout as the experimental endpoint, and thus effectively measures the cytotoxicity of test materials at the level of the skin. MTT [3-(4,5-Dimethylthiazol-2-yl)-2,5-diphenyltetrazolium bromide, a tetrazole] which is yellow, is reduced to purple formazan in living cells and this conversion is measured in a colorimetric assay. MTT assay measures the activity of succinate dehydrogenase, a key enzyme in the respiratory electron transport chain in mitochondria and is a generally-accepted test for measuring cytotoxicity.
Statistically significant variation was defined as ≥15% variation from the water control with p value<0.05 calculated using double-tailed t-test.

[3] = test system: CHO cells; assay: Cytotoxicity observed in the PPAR-α luciferase reporter assay; settings: for Cytotoxic?: Experiment 2 (sample prep in DMSO)
Description: A variety of samples were tested on the effect on the transcription of the PPAR-α controlled luciferase reporter gene. CHO cells were utilized and are an epithelial cell line derived from the ovary of the Chinese hamster.

[4] = molecular target: T1, PPAR-α (Homo sapiens, UniProt Q07869); assay: PPAR-α luciferase reporter assay in CHO cells
T1 sequence (Q07869 1-468): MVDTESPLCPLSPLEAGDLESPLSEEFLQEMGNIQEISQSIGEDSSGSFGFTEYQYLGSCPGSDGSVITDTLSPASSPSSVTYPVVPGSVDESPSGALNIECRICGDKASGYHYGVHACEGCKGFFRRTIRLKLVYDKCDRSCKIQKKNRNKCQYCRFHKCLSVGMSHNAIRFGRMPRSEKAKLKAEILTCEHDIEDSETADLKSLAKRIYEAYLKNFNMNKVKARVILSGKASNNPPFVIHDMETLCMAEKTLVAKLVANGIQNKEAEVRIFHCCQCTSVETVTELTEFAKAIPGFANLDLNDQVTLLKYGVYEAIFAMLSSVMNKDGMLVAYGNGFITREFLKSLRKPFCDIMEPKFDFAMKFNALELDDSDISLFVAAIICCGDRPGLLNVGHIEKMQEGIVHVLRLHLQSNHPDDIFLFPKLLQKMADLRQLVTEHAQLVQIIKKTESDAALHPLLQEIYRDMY
Description: The objective of this project was to determine the effects of the test materials listed in Table 4 on the transcription regulatory activity of PPARα in a luciferase reporter assay system.
A variety of samples were tested on the effect on the transcription of the PPAR-α controlled luciferase reporter gene.
PPAR-α Luciferase experiment: Compositions were tested at 250 μg/mL Dilution in DMSO (FIG. 1) and 500 μg/mL Dilution in DMSO (FIG. 2).
Table 5 summarizes the effect of different concentrations of test materials on the transcriptional activation of the luciferase reporter gene under the PPAR-α-controlled promoter (2 separate experiments, Experiment 1 wherein sample prep was done in water and Experiment 2 wherein the sample prep was done in DMSO).

[5] = test system: C57BL/6 mouse melanocytes; assay: Melanin content in melanocytes and melanocyte-conditioned medium; type: cell-based; settings: 3 days; for % Control (extracellular melanin): melanocyte-conditioned medium
Description: Materials & Methods: Test material was dissolved at 100 mg/ml in DMSO the day of the experiment, diluted in sterile distilled water and samples were added in duplicates to confluent cultures of C57BL/6 mouse melanocytes well plate format. The cell growth medium was Opti-MEM supplemented with 7% horse serum (ThermoFisher Scientific, Waltham, Mass.) and antibiotics. Medium was freshly changed on Day 0 of the experiment. Cells were grown in the presence of the test material for 3 days, afterward they were frozen at −20° C., lysed in Solvable (Perkin Elmer, Waltham, Mass.) at 37° C. for 60 min. and colorimetrically quantified at 490 nm with Molecular Devices (Sunnyvale, Calif.) microplate reader MAX190. Kojic acid (100 μg/ml and 200 μg/ml) was the positive control. Statistically significant variation was defined as >20% variation from the water control with p value<0.05 calculated with double-tailed t-test.
Test materials were added to exponentially-growing cultures and the experiment was terminated 3 days later.

[6] = Lipophilic oxygen radical absorbance capacity (Lipo-ORAC) assay; type: biochemical; settings: expressed in Trolox equivalents
Description: Because of its damaging effect on vital biological systems, oxidative stress has been implicated in more than 100 diseases and aging. The objective of this test was to measure the antioxidant potential of the test materials listed in Table I using lipophilic oxygen radical absorbance capacity (Lipo-ORAC) assay (Stock solutions were prepared in acetone at 2% and diluted in 7% RMCD immediately before the experiment). Lipo-ORAC assay measures the ability of antioxidant compounds to inhibit the decline in disodium fluorescein (FL) fluorescence that is induced by peroxyl radical generator, 2′,2′-Azobis (2-amidinopropane) dihydrochloride (AAPH). The peroxyl radical is one of the most common reactive oxygen species (ROS) found in the body. This procedure incorporates random methylated beta-cyclodextrin as a solubility enhancer and allows for quantification of antioxidant potential of lipophilic samples, using Trolox as standard. Applied Biosystems Cytofluor 4000 fluorometer and software were used for the quantification of this assay.

[7] = molecular target: T2, PPAR-γ (Homo sapiens, UniProt P37231); assay: PPAR-γ luciferase experiment; type: cell-based; settings: statement of the description
T2 sequence (P37231 1-505): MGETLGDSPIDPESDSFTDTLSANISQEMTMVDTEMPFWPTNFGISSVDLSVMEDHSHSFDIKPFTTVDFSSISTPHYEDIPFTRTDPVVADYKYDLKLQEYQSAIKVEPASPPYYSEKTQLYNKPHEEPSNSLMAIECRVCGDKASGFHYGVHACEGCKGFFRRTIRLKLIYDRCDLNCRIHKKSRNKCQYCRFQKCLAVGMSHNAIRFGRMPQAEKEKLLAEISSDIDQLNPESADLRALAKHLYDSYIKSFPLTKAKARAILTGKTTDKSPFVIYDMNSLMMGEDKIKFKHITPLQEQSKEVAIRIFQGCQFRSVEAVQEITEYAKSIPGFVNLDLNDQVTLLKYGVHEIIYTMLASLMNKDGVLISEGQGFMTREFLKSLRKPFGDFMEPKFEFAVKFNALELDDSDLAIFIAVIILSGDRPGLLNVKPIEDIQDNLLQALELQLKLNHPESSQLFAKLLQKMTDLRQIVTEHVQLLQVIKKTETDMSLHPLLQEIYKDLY
Description: PPAR-γ Luciferase experiment: Compositions were tested at 50 μg/mL Dilution in DMSO (FIG. 3) and 200 μg/mL Dilution in DMSO (FIG. 4). Positive control: Rosiglitazone at 300 nM potent and selective agonist of PPARγ.

[8] = Experiment 2 (sample prep in DMSO), 250 μg/mL
[9] = Experiment 2 (sample prep in DMSO), 500 μg/mL
[10] = Experiment 1 (sample prep in water), 300 nM
[11] = Experiment 2 (sample prep in DMSO), 300 nM

CCCCCCCCCCCCOS(=O)(=O)[O-].[Na+] [5% SDS]
decrease of the IL-8 level [1]: 55%
cells viable ([2]; MTT): 12%
Mean of OD ([2]; MTT formazan at 560 nm, 60 min exposure, RFV3 at 10% in Finsolv): 0.038
Mean of Viability [% water] ([2]; MTT, 60 min exposure, RFV3 at 10% in Finsolv): 2 % water
Classification ([2]; RFV3 at 10% in Finsolv): I

CCCCCCCCC(O)CCCCCCCCC(=O)O (centres unmarked) [10HSA, Hydroxystearic Acid]
Cytotoxic? ([3]; 250 μg/mL): Yes
Cytotoxic? ([3]; 500 μg/mL): Yes
% Control (H2O) [4, 8]: 45%
Chemoluminescence [4, 8]: 2 arbitrary units
% Control (H2O) [4, 9]: 41%
Chemoluminescence [4, 9]: 2 arbitrary units

Cc1nc(-c2ccc(C(F)(F)F)cc2)sc1C(=O)NCc1ccc(OC(C)(C)C(=O)O)cc1 [GW590735]
% Control (H2O) [4, 10]: 365%
Chemoluminescence [4, 10]: 344 arbitrary units
% Control (H2O) [4, 11]: 341%
Chemoluminescence [4, 11]: 19 arbitrary units
effect on transcriptional activation of the luciferase reporter gene under the PPAR-α-controlled promoter (in words) ([4]; summary of Table 5): strongly upregulated

O=c1cc(CO)occ1O [Kojic acid]
% Control (intracellular melanin) ([5]; 100 μg/ml): 92%
% Control (extracellular melanin) ([5]; 100 μg/ml): 90%
% Control (intracellular melanin) ([5]; 200 μg/ml): 86%
% Control (extracellular melanin) ([5]; 200 μg/ml): 84%

CCCCCCCCC(CCCCCC)C(=O)OC[C@H](OC(=O)C(CCCCCC)CCCCCCCC)[C@H]1OC(=O)C(OC(=O)C(CCCCCC)CCCCCCCC)=C1OC(=O)C(CCCCCC)CCCCCCCC (some centres unmarked) [Tetrahexyldecyl (THD) ascorbate]
ORAC (Lipo-ORAC score) [6]: 0 μmoles TE/g
ORAC (Lipo-ORAC score) ([6]; listed as THD ascorbate): no activity

Cc1c(C)c2c(c(C)c1O)CCC(C)(C(=O)O)O2 (centres unmarked) [Trolox]
ORAC (Lipo-ORAC score) [6]: 3985 μmoles TE/g

CCCCCC/C=C/C#CCCCCCCCC(=O)O [XA, (E)-Octadec-11-en-9-ynoic acid]
cytotoxicity (in words) ([3]; Example 8, FIG. 9, 500 μg/mL in DMSO): cytotoxic
Cytotoxic? ([3]; 500 μg/mL): Yes
PPARγ agonist activity (in words) [7]: moderate PPARγ agonist
% Control (H2O) [4, 8]: 145%
Chemoluminescence [4, 8]: 8 arbitrary units
% Control (H2O) [4, 9]: 24%
Chemoluminescence [4, 9]: 1 arbitrary units
PPAR / PPARα agonist activity (in words) ([4]; statements of the description): very mild PPARα agonist

Octadecenedioic Acid [ODA]
% Control (H2O) [4, 8]: 278%
Chemoluminescence [4, 8]: 15 arbitrary units
% Control (H2O) [4, 9]: 97%
Chemoluminescence [4, 9]: 5 arbitrary units
